Measured values taken from US20220380368A1, “SPIROCYCLIC ANDROGEN RECEPTOR PROTEIN DEGRADERS” (THE REGENTS OF THE UNIVERSITY OF MICHIGAN, priority 2019, published 2022).
Where two headings read alike, the source gives them in different places.

Target: T1, AR protein (Homo sapiens, UniProt P10275)
T1 construct: endogenous in cells; host or cells: VCaP
T1 sequence (P10275 1-920): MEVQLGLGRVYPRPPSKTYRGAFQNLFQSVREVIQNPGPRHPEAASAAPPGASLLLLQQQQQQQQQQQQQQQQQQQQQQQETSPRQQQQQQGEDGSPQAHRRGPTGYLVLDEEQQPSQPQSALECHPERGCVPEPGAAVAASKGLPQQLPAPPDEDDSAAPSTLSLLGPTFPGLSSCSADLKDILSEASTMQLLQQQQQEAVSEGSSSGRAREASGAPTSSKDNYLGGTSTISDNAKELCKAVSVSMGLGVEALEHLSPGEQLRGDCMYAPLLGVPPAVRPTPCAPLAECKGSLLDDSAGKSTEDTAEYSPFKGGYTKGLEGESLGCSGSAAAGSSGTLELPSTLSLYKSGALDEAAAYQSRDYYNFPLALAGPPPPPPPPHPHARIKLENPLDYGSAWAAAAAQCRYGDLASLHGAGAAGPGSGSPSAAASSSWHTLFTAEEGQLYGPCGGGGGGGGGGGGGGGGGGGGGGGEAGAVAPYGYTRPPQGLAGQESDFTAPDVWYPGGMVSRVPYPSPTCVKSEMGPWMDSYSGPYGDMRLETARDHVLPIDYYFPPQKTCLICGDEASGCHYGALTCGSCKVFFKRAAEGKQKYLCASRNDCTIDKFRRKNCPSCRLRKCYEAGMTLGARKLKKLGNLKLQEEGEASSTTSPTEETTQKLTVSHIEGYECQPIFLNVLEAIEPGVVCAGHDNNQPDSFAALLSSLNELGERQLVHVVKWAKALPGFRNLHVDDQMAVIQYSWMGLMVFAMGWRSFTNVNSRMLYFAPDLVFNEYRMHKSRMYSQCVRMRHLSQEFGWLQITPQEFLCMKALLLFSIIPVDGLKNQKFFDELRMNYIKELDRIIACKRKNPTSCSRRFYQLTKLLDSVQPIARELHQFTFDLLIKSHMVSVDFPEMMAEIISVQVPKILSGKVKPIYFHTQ
Experiment: Western blotting analysis of AR protein levels in VCaP cells, band quantification, DC50/DC90
Format: cell-based
Protocol: The appropriate cell line, e.g., prostate cancer LNCaP, Vcap, or 22RV1 cell line, was treated with Compounds of the Disclosure as indicated. The treated cells were lysed with RIPA buffer. […] GAPDH was used as a loading control.
Bands were quantified with ImageJ software. The relative numbers of each band obtained from normalization with its corresponding GAPDH level were compared with Prism 8 software. The DC50 values were produced from Prism 8, and the DC90 values were calculated with an equation=Bottom+(Top−Bottom)/(1+10^((Log EC50−X)*HillSlope) based on DC50 and Hillslope values.

[1] = VCaP cells, Table 6; read-out: VCaP DC50

| SMILES | DC50 [1] | DC50 (read-out: VCaP DC50; VCaP cells, Table 6) |
| --- | --- | --- |
| C[C@H]1CC2(CCN(c3ccc(C(=O)N4CCC(CN5Cc6cc7c(cc6C5)C(=O)N(C5CCC(=O)NC5=O)C7=O)CC4)cc3F)CC2)CN1c1ccc(C#N)c(Cl)c1 (stereo partly drawn) [Cpd. No. 527, 2-chloro-4-((3S)-8-(4-(4-((6-(2,6-dioxopiperidin-3-yl)-5,7-dioxo-3,5,6,7-tetrahydropyrrolo[3,4-f]isoindol-2(1H)-yl)methyl)piperidine-1-carbonyl)-2-fluorophenyl)-3-methyl-2,8-diazaspiro[4.5]decan-2-yl)benzonitrile] | < 1 nM | – |
| C[C@H]1CC2(CCN(c3ncc(C(=O)N4CCN(C5CN(c6cc7c(cc6F)C(=O)N(C6CCC(=O)NC6=O)C7=O)C5)CC4)cn3)CC2)CN1c1ccc(C#N)c(Cl)c1 (stereo partly drawn) [Cpd. No. 523, 2-chloro-4-((3S)-8-(5-(4-(1-(2-(2,6-dioxopiperidin-3-yl)-6-fluoro-1,3-dioxoisoindolin-5-yl)azetidin-3-yl)piperazine-1-carbonyl)pyrimidin-2-yl)-3-methyl-2,8-diazaspiro[4.5]decan-2-yl)benzonitrile] | < 1 nM | – |
| C[C@H]1CC2(CCN(c3ncc(C(=O)N4CCC(N5CCN(c6ccc7c(c6)C(=O)N(C6CCC(=O)NC6=O)C7=O)CC5)CC4)cn3)CC2)CN1c1ccc(C#N)c(Cl)c1 (stereo partly drawn) [Cpd. No. 514, 2-chloro-4-((3S)-8-(5-(4-(4-(2-(2,6-dioxopiperidin-3-yl)-1,3-dioxoisoindolin-5-yl)piperazin-1-yl)piperidine-1-carbonyl)pyrimidin-2-yl)-3-methyl-2,8-diazaspiro[4.5]decan-2-yl)benzonitrile] | < 1 nM | – |
| C[C@H]1CC2(CCN(c3ncc(C(=O)N4CCN(C5CCN(c6cc7c(cc6F)C(=O)N(C6CCC(=O)NC6=O)C7=O)CC5)CC4)cn3)CC2)CN1c1ccc(C#N)c(Cl)c1 (stereo partly drawn) [Cpd. No. 524, 2-chloro-4-((3S)-8-(5-(4-(1-(2-(2,6-dioxopiperidin-3-yl)-6-fluoro-1,3-dioxoisoindolin-5-yl)piperidin-4-yl)piperazine-1-carbonyl)pyrimidin-2-yl)-3-methyl-2,8-diazaspiro[4.5]decan-2-yl)benzonitrile] | < 1 nM | – |
| C[C@H]1CC2(CCN(c3ccc(C(=O)N4CCN(C5CN(c6cc7c(cc6F)C(=O)N(C6CCC(=O)NC6=O)C7=O)C5)CC4)c(F)c3)CC2)CN1c1ccc(C#N)c(Cl)c1 (stereo partly drawn) [Cpd. No. 530, 2-chloro-4-((3S)-8-(4-(4-(1-(2-(2,6-dioxopiperidin-3-yl)-6-fluoro-1,3-dioxoisoindolin-5-yl)azetidin-3-yl)piperazine-1-carbonyl)-3-fluorophenyl)-3-methyl-2,8-diazaspiro[4.5]decan-2-yl)benzonitrile] | < 1 nM | – |
| C[C@H]1CC2(CCN(c3ccc(C(=O)N4CCN(C5CCN(c6ccc7c(c6)C(=O)N(C6CCC(=O)NC6=O)C7=O)CC5)CC4)cc3F)CC2)CN1c1ccc(C#N)c(Cl)c1 (stereo partly drawn) [Cpd. No. 519, 2-chloro-4-((3S)-8-(4-(4-(1-(2-(2,6-dioxopiperidin-3-yl)-1,3-dioxoisoindolin-5-yl)piperidin-4-yl)piperazine-1-carbonyl)-2-fluorophenyl)-3-methyl-2,8-diazaspiro[4.5]decan-2-yl)benzonitrile] | < 1 nM | – |
| C[C@H]1CC2(CCN(c3ncc(C(=O)N4CCN(C5CCN(c6ccc7c(c6)C(=O)N(C6CCC(=O)NC6=O)C7=O)CC5)CC4)cn3)CC2)CN1c1ccc(C#N)c(Cl)c1 (stereo partly drawn) [Cpd. No. 513, 2-chloro-4-((3S)-8-(5-(4-(1-(2-(2,6-dioxopiperidin-3-yl)-1,3-dioxoisoindolin-5-yl)piperidin-4-yl)piperazine-1-carbonyl)pyrimidin-2-yl)-3-methyl-2,8-diazaspiro[4.5]decan-2-yl)benzonitrile] | < 1 nM | – |
| C[C@H]1CC2(CCN(c3ccc(C(=O)N4CCN(C5CCN(c6ccc7c(c6)C(=O)N(C6CCC(=O)NC6=O)C7=O)CC5)CC4)cn3)CC2)CN1c1ccc(C#N)c(Cl)c1 (stereo partly drawn) [Cpd. No. 508, 2-chloro-4-((3S)-8-(5-(4-(1-(2-(2,6-dioxopiperidin-3-yl)-1,3-dioxoisoindolin-5-yl)piperidin-4-yl)piperazine-1-carbonyl)pyridin-2-yl)-3-methyl-2,8-diazaspiro[4.5]decan-2-yl)benzonitrile] | < 1 nM | – |
| C[C@H]1CC2(CCN(c3ccc(C(=O)N4CC[C@H](N5CCN(c6ccc7c(c6)C(=O)N(C6CCC(=O)NC6=O)C7=O)CC5)C4)cc3)CC2)CN1c1ccc(C#N)c(Cl)c1 (stereo partly drawn) [Cpd. No. 516, 2-chloro-4-((3S)-8-(4-((3S)-3-(4-(2-(2,6-dioxopiperidin-3-yl)-1,3-dioxoisoindolin-5-yl)piperazin-1-yl)pyrrolidine-1-carbonyl)phenyl)-3-methyl-2,8-diazaspiro[4.5]decan-2-yl)benzonitrile] | 1 to 10 nM | – |
| C[C@H]1CC2(CCN(c3ccc(C(=O)N4CCN(C5CN(c6cc7c(cc6F)C(=O)N(C6CCC(=O)NC6=O)C7=O)C5)CC4)cc3F)CC2)CN1c1ccc(C#N)c(Cl)c1 (stereo partly drawn) [Cpd. No. 532, 2-chloro-4-((3S)-8-(4-(4-(1-(2-(2,6-dioxopiperidin-3-yl)-6-fluoro-1,3-dioxoisoindolin-5-yl)azetidin-3-yl)piperazine-1-carbonyl)-2-fluorophenyl)-3-methyl-2,8-diazaspiro[4.5]decan-2-yl)benzonitrile] | < 1 nM | – |
| C[C@H]1CC2(CCN(c3ccc(C(=O)N4CCN(C5CCN(c6ccc7c(c6)C(=O)N(C6CCC(=O)NC6=O)C7=O)CC5)CC4)cc3F)CC2)CN1c1ccc(C#N)c(Cl)c1 (stereo partly drawn) [Cpd. No. 520, 2-chloro-4-((3S)-8-(4-(4-(1-(2-(2,6-dioxopiperidin-3-yl)-1,3-dioxoisoindolin-5-yl)piperidin-4-yl)piperazine-1-carbonyl)-2-fluorophenyl)-3-methyl-2,8-diazaspiro[4.5]decan-2-yl)benzonitrile] | < 1 nM | – |
| C[C@H]1CC2(CCN(c3ccc(C(=O)N4CCN(C5CN(c6cc7c(cc6F)C(=O)N(C6CCC(=O)NC6=O)C7=O)C5)CC4)cn3)CC2)CN1c1ccc(C#N)c(Cl)c1 (stereo partly drawn) [Cpd. No. 505, 2-chloro-4-((3S)-8-(5-(4-(1-(2-(2,6-dioxopiperidin-3-yl)-6-fluoro-1,3-dioxoisoindolin-5-yl)azetidin-3-yl)piperazine-1-carbonyl)pyridin-2-yl)-3-methyl-2,8-diazaspiro[4.5]decan-2-yl)benzonitrile] | – | < 1 nM |
| C[C@H]1CC2(CCN(c3ccc(C(=O)N4CCN(C5CN(c6cc7c(cc6F)C(=O)N(C6CCC(=O)NC6=O)C7=O)C5)CC4)nn3)CC2)CN1c1ccc(C#N)c(Cl)c1 (stereo partly drawn) [Cpd. No. 536, 2-chloro-4-((3S)-8-(6-(4-(1-(2-(2,6-dioxopiperidin-3-yl)-6-fluoro-1,3-dioxoisoindolin-5-yl)azetidin-3-yl)piperazine-1-carbonyl)pyridazin-3-yl)-3-methyl-2,8-diazaspiro[4.5]decan-2-yl)benzonitrile] | < 1 nM | – |
| C[C@H]1CC2(CCN(c3ccc(C(=O)N4CC(N5CCN(c6cc7c(cc6F)C(=O)N(C6CCC(=O)NC6=O)C7=O)CC5)C4)cn3)CC2)CN1c1ccc(C#N)c(Cl)c1 (stereo partly drawn) [Cpd. No. 539, 2-chloro-4-((3S)-8-(5-(3-(4-(2-(2,6-dioxopiperidin-3-yl)-6-fluoro-1,3-dioxoisoindolin-5-yl)piperazin-1-yl)azetidine-1-carbonyl)pyridin-2-yl)-3-methyl-2,8-diazaspiro[4.5]decan-2-yl)benzonitrile] | 1 to 10 nM | – |
| C[C@H]1CC2(CCN(c3ccc(C(=O)N4CCN(C5CN(c6cc7c(cc6F)C(=O)N(C6CCC(=O)NC6=O)C7=O)C5)CC4)cn3)CC2)CN1c1ccc(C#N)c(Cl)c1 (stereo partly drawn) [Cpd. No. 504, 2-chloro-4-((3S)-8-(5-(4-(1-(2-(2,6-dioxopiperidin-3-yl)-6-fluoro-1,3-dioxoisoindolin-5-yl)azetidin-3-yl)piperazine-1-carbonyl)pyridin-2-yl)-3-methyl-2,8-diazaspiro[4.5]decan-2-yl)benzonitrile] | < 1 nM | – |
| C[C@H]1CC2(CCN(c3ccc(C(=O)N4CCN(C5CN(c6cc7c(cc6F)C(=O)N(C6CCC(=O)NC6=O)C7=O)C5)CC4)cn3)CC2)CN1c1ccc(C#N)c(Cl)c1 (stereo partly drawn) [Cpd. No. 506, 2-chloro-4-((3S)-8-(5-(4-(1-(2-(2,6-dioxopiperidin-3-yl)-6-fluoro-1,3-dioxoisoindolin-5-yl)azetidin-3-yl)piperazine-1-carbonyl)pyridin-2-yl)-3-methyl-2,8-diazaspiro[4.5]decan-2-yl)benzonitrile] | < 1 nM | – |
